Patent publication US12521393B2, “Cytotoxicity targeting chimeras for CCR2-expressing cells” (GLAXOSMITHKLINE INTELLECTUAL PROPERTY DEVELOPMENT LIMITED, priority 2021, dated 2026)

Tested on: endogenous target monocytes in human PBMC
Test: PBMC ex vivo monocyte depletion flow cytometry assay (Example 200)
Type: cell-based
Settings: with anti-cotinine antibody (SEQ ID NO: 11/12), 18-24 hours, EC50 in molar, read-out: Ex Vivo Depletion Assay pEC50 (converted)
Procedure: A human PBMC (peripheral blood mononuclear cells) monocyte depletion flow cytometry assay was developed to screen compounds in a 384-well plate format. This assay incorporated endogenous natural killer cells to deplete endogenous target monocytes.
To screen compounds in the human PBMC monocyte depletion flow cytometry assay, 11-point dose-response curves were made from 1 mM stocks in neat DMSO by serially diluting an ARM compound of Formula (I) four-fold into a 384-well plate row-wise. These serially diluted compounds were then stamped into a flat bottom polypropylene 384-well plate (Greiner Bio-One) at 100 nL/well. Fifty microliters of 30 μg/mL anti-cotinine antibody having a heavy chain sequence of SEQ ID NO: 11 and a light chain sequence of SEQ ID NO: 12 (rabbit variable region with human IgG1 Fc domain containing a DE mutation (S239D/1332E)) that had been diluted in assay medium (RPMI 1640 (Gibco) containing 10% fetal bovine serum (Gibco), 1% Glutamax (Gibco) and 1% sodium pyruvate (Corning) was added to the wells of the plate. The plate was centrifuged for 1 min at 500 rpm (revolutions per minute) and then shaken for 5 min at room temperature. The plate was incubated for 15 minutes at 37° C./5% CO2.
Frozen PBMC cells (HemaCare BioResearch) were thawed and centrifuged at 1,200 rpm for 4 minutes. The cells were diluted to a cell density of 2×10^6 cells/mL in assay medium. Fifty microliters of the diluted cells were added to the wells of the plate. The plate was centrifuged for 1 min at 500 rpm and incubated for 18-24 hours at 37° C./5% CO2.
After 18-24 hours incubation, 2 μL of 6.25 μg human FC block (BD Pharmingen) that was diluted in assay medium was added to the wells of the plate. The plate was centrifuged for 1 minute at 500 rpm and then incubated at room temperature for 15 minutes. Five microliters of 750 nM Helix NP NIR (Biolegend) that had been diluted in assay medium was added to the wells of the plate. Nine microliters of antibody cocktail containing 1/5 diluted fluorescein isothiocyanate (FITC) labeled anti-CD45 antibody (Beckman Coulter), PC7 labeled anti-CD14 antibody (Beckman Coulter) and phyocoerythrin (PE) anti-CD4 antibody (Beckman Coulter) was then added to the wells of the plate. The plate was centrifuged for 1 min at 500 rpm and incubated for 30 minutes at 4-8° C. Samples from the plate were run on BD FACS Canto II flow cytometer and data was analyzed using FlowJo software.
ARMs compounds of Formula (I) of the invention were tested for the ability to deplete monocytes in the above assay in one or more experimental runs and the results are shown in Table 3 below. Potency of the compounds of the invention is reported as a pEC50 value. The pEC50 value is the negative log of the EC50 value, wherein the EC50 value is the half maximal effective concentration measured in molar (M). For compounds tested in more than one experimental run, the pEC50 value is reported as an average or as the individual values measured

Compound | EC50 [nM]
CC(C)N(C)[C@@H]1CC[C@H](N2CC[C@H](Nc3ncnc4ccc(C(F)(F)F)cc34)C2=O)[C@H](NC(=O)C2CCC3(CC2)CCN(CCOCCOCCNC(=O)[C@H]2CC(=O)N(C)[C@@H]2c2cccnc2)CC3)C1 [Example 93, N-((1R,2S,5R)-5-(Isopropyl(methyl)amino)-2-((S)-2-oxo-3-((6-(trifluoromethyl)quinazolin-4-yl)amino)pyrrolidin-1-yl)cyclohexyl)-3-(2-(2-(2-((2S,3S)-1-methyl-5-oxo-2-(pyridin-3-yl)pyrrolidine-3-carboxamido)ethoxy)ethoxy)ethyl)-3-azaspiro [5.5]undecane-9-carboxamide] | 126
CC(C)N(C)[C@@H]1CC[C@H](N2CC[C@H](Nc3ncnc4ccc(C(F)(F)F)cc34)C2=O)[C@H](NC(=O)[C@H]2CC[C@@H](NC(=O)C3CCC4(CC3)CCN(C(=O)[C@H]3CC(=O)N(C)[C@@H]3c3cccnc3)CC4)CC2)C1 [Example 95, N-((1S,4R)-4-(((1R,2S,5R)-5-(Isopropyl(methyl)amino)-2-((S)-2-oxo-3-((6-(trifluoromethyl)quinazolin-4-yl)amino)pyrrolidin-1-yl)cyclohexyl)carbamoyl)cyclohexyl)-3-((2S,3S)-1-methyl-5-oxo-2-(pyridin-3-yl)pyrrolidine-3-carbonyl)-3-azaspiro[5.5]undecane-9-carboxamide] | 631
CC(C)N(C)[C@@H]1CC[C@H](N2CC[C@H](Nc3ncnc4ccc(C(F)(F)F)cc34)C2=O)[C@H](NC(=O)[C@H]2CC[C@H](N3CCN(C(=O)CCOCCOCCNC(=O)[C@H]4CC(=O)N(C)[C@@H]4c4cccnc4)CC3)CC2)C1 [Example 96, (2S,3S)-N-(2-(2-(3-(4-((1R,4r)-4-(((1R,2S,5R)-5-(Isopropyl(methyl)amino)-2-((S)-2-oxo-3-((6-(trifluoromethyl)quinazolin-4-yl)amino)pyrrolidin-1-yl)cyclohexyl)carbamoyl)cyclohexyl)piperazin-1-yl)-3-oxopropoxy)ethoxy)ethyl)-1-methyl-5-oxo-2-(pyridin-3-yl)pyrrolidine-3-carboxamide] | 1
CC(C)N(C)[C@@H]1CC[C@H](N2CC[C@H](Nc3ncnc4ccc(C(F)(F)F)cc34)C2=O)[C@H](NC(=O)[C@H]2CC[C@H](N3CCN(C4CC(CCNC(=O)[C@H]5CC(=O)N(C)[C@@H]5c5cccnc5)C4)CC3)CC2)C1 (stereo partly drawn) [Example 97, (2S,3S)-N-(2-(3-(4-((1R,4S)-4-(((1R,2S,5R)-5-(Isopropyl(methyl)amino)-2-((S)-2-oxo-3-((6-(trifluoromethyl)quinazolin-4-yl)amino)pyrrolidin-1-yl)cyclohexyl)carbamoyl)cyclohexyl)piperazin-1-yl)cyclobutyl)ethyl)-1-methyl-5-oxo-2-(pyridin-3-yl)pyrrolidine-3-carboxamide] | 0.0631
CC(C)N(C)[C@@H]1CC[C@H](N2CC[C@H](Nc3ncnc4ccc(C(F)(F)F)cc34)C2=O)[C@H](NC(=O)[C@H]2CC[C@@H](NC(=O)CCOCCNC(=O)CCOCCCNC(=O)[C@H]3CC(=O)N(C)[C@@H]3c3cccnc3)CC2)C1 [Example 101, (2S,3S)-N-(3-(3-((2-(3-(((1S,4s)-4-(((1R,2S,5R)-5-(Isopropyl(methyl)amino)-2-((S)-2-oxo-3-((6-(trifluoromethyl)quinazolin-4-yl)amino)pyrrolidin-1-yl)cyclohexyl)carbamoyl)cyclohexyl)amino)-3-oxopropoxy)ethyl)amino)-3-oxopropoxy)propyl)-1-methyl-5-oxo-2-(pyridin-3-yl)pyrrolidine-3-carboxamide] | 0.631
CN1C(=O)C[C@H](C(=O)NCCOCC(=O)NCCOCCC(=O)NCCOCCC(=O)N[C@@H]2C[C@H](NC(C)(C)C)CC[C@@H]2N2CC[C@H](Nc3ncnc4ccc(C(F)(F)F)cc34)C2=O)[C@H]1c1cccnc1 [Example 106, (2S,3S)-N-(19-(((1R,2S,5R)-5-(tert-Butylamino)-2-((S)-2-oxo-3-((6-(trifluoromethyl)quinazolin-4-yl)amino)pyrrolidin-1-yl)cyclohexyl)amino)-5,12,19-trioxo-3,9, 16-trioxa-6, 13-diazanonadecyl)-1-methyl-5-oxo-2-(pyridin-3-yl)pyrrolidine-3-carboxamide] | 0.794
CC(C)N(C)[C@@H]1CC[C@H](N2CC[C@H](Nc3ncnc4ccc(C(F)(F)F)cc34)C2=O)[C@H](NC(=O)[C@H]2CC[C@H](NC(=O)CCO[C@H]3CC[C@@H](OCCNC(=O)[C@H]4CC(=O)N(C)[C@@H]4c4cccnc4)CC3)CC2)C1 [Example 114, (2S,3S)-N-(2-(((1S,4R)-4-(3-(((1R,4R)-4-(((1R,2S,5R)-5-(Isopropyl(methyl)amino)-2-((S)-2-oxo-3-((6-(trifluoromethyl)quinazolin-4-yl)amino)pyrrolidin-1-yl)cyclohexyl)carbamoyl)cyclohexyl)amino)-3-oxopropoxy)cyclohexyl)oxy)ethyl)-1-methyl-5-oxo-2-(pyridin-3-yl)pyrrolidine-3-carboxamide] | 2.51
CC(C)N(C)[C@@H]1CC[C@H](N2CC[C@H](Nc3ncnc4ccc(C(F)(F)F)cc34)C2=O)[C@H](NC(=O)[C@H]2C[C@H](NC(=O)CCO[C@H]3CC[C@@H](OCCNC(=O)[C@H]4CC(=O)N(C)[C@@H]4c4cccnc4)CC3)C2)C1 [Example 116, (2S,3S)-N-(2-(((1S,4R)-4-(3-(((1R,3R)-3-(((1R,2S,5R)-5-(Isopropyl(methyl)amino)-2-((S)-2-oxo-3-((6-(trifluoromethyl)quinazolin-4-yl)amino)pyrrolidin-1-yl)cyclohexyl)carbamoyl)cyclobutyl)amino)-3-oxopropoxy)cyclohexyl)oxy)ethyl)-1-methyl-5-oxo-2-(pyridin-3-yl)pyrrolidine-3-carboxamide] | 0.0398
CC(C)N(C)[C@@H]1CC[C@H](N2CC[C@H](Nc3ncnc4ccc(C(F)(F)F)cc34)C2=O)[C@H](NC(=O)[C@H]2C[C@H](NC(=O)CCO[C@H]3CC[C@H](OCCNC(=O)[C@H]4CC(=O)N(C)[C@@H]4c4cccnc4)CC3)C2)C1 [Example 117] | 3.98
CC(C)N(C)[C@@H]1CC[C@H](N2CC[C@H](Nc3ncnc4ccc(C(F)(F)F)cc34)C2=O)[C@H](NC(=O)CCOCCOCCNC(=O)[C@@H]2CCCN2CCOCCNC(=O)[C@H]2CC(=O)N(C)[C@@H]2c2cccnc2)C1 [Example 118, (S)-N-(2-(2-(3-(((1R,2S,5R)-5-(Isopropyl(methyl)amino)-2-((S)-2-oxo-3-((6-(trifluoromethyl)quinazolin-4-yl)amino)pyrrolidin-1-yl)cyclohexyl)amino)-3-oxopropoxy)ethoxy)ethyl)-1-(2-(2-((2S,3S)-1-methyl-5-oxo-2-(pyridin-3-yl)pyrrolidine-3-carboxamido)ethoxy)ethyl)pyrrolidine-2-carboxamide] | 15.8
CN1C(=O)C[C@H](C(=O)NCCOCCOCCC(=O)N[C@H]2CC[C@@H](C(=O)N[C@@H]3C[C@H](NC(C)(C)C)CC[C@@H]3N3CC[C@H](Nc4ncnc5ccc(C(F)(F)F)cc45)C3=O)CC2)[C@H]1c1cccnc1 [Example 120, (2S,3S)-N-(2-(2-(3-(((1S,4s)-4-(((1R,2S,5R)-5-(tert-Butylamino)-2-((S)-2-oxo-3-((6-(trifluoromethyl)quinazolin-4-yl)amino)pyrrolidin-1-yl)cyclohexyl)carbamoyl)cyclohexyl)amino)-3-oxopropoxy)ethoxy)ethyl)-1-methyl-5-oxo-2-(pyridin-3-yl)pyrrolidine-3-carboxamide] | 1.26
CC(C)N(C)[C@@H]1CC[C@H](N2CC[C@H](Nc3ncnc4ccc(C(F)(F)F)cc34)C2=O)[C@H](NC(=O)c2cccc(NCCOCCOCCOCCOCCNC(=O)[C@H]3CC(=O)N(C)[C@@H]3c3cccnc3)n2)C1 [Example 123, N-((1R,2S,5R)-5-(Isopropyl(methyl)amino)-2-((S)-2-oxo-3-((6-(trifluoromethyl)quinazolin-4-yl)amino)pyrrolidin-1-yl)cyclohexyl)-6-((1-((2S,3S)-1-methyl-5-oxo-2-(pyridin-3-yl)pyrrolidin-3-yl)-1-oxo-5,8,11,14-tetraoxa-2-azahexadecan-16-yl)amino)picolinamide] | 15.8
